According to PubChem BioAssay AID330 (DTP/NCI, 2004):
Values joined by “and” are separate entries in the source; they are usually repeats but may differ in a detail not shown here. Identical values can stand only once. Inconclusive results and toxic doses are left out.

Tested on: P388 leukemia ip, CD2F1 mice, survival T/C
Test: NCI In Vivo Anticancer Drug Screen. Data for tumor model P388 Leukemia (intraperitoneal) in CD2F1 (CDF1) mice
Conditions: endpoint: median survival time, higher = longer survival
Method in brief: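 Mice carrying the transplanted tumor received test compound or vehicle. Survival was recorded in each group, and the value is the treated-group measurement divided by that of the vehicle-treated control group.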

[1] = dose: 50.0 mg/kg/injection, schedule: Q01DX005 (ip), vehicle: saline
[2] = dose: 100.0 mg/kg/injection, schedule: Q01DX005 (ip), vehicle: saline
[3] = dose: 200.0 mg/kg/injection, schedule: Q01DX005 (ip), vehicle: saline
[4] = dose: 50.0 mg/kg/injection, schedule: Q01DX009 (ip), vehicle: saline with Tween-80
[5] = dose: 100.0 mg/kg/injection, schedule: Q01DX009 (ip), vehicle: saline with Tween-80
[6] = dose: 50.0 mg/kg/injection, schedule: Q01DX005 (ip), vehicle: Klucel (hydroxypropylcellulose) (HPC)
[7] = dose: 100.0 mg/kg/injection, schedule: Q01DX005 (ip), vehicle: Klucel (hydroxypropylcellulose) (HPC)
[8] = dose: 200.0 mg/kg/injection, schedule: Q01DX005 (ip), vehicle: Klucel (hydroxypropylcellulose) (HPC)
[9] = dose: 25.0 mg/kg/injection, schedule: Q01DX009 (ip), vehicle: saline with Tween-80

`N=C(N)c1ccc(N=Nc2c(O)ccc3cc(O)ccc23)cc1` was tested, and the T/C (dose: 3.12 mg/kg/injection, schedule: Q01DX005 (ip), vehicle: Klucel (hydroxypropylcellulose) (HPC)) was 104 % of control, the T/C (dose: 6.25 mg/kg/injection, schedule: Q01DX005 (ip), vehicle: Klucel (hydroxypropylcellulose) (HPC)) was 101 % of control and 102 % of control and the T/C (dose: 12.5 mg/kg/injection, schedule: Q01DX005 (ip), vehicle: Klucel (hydroxypropylcellulose) (HPC)) was 116 % of control (2×) and 95 % of control.
In the case of `COc1cc(C2=NCCc3cc4c(cc32)OCO4)cc(OC)c1OC`, the T/C [1] was 100 % of control and 101 % of control, the T/C [2] was 105 % of control and 118 % of control and the T/C [3] was 152 % of control.
For `O=P(O)(O)CCCNO`, the T/C (dose: 60.0 mg/kg/injection, schedule: Q01DX005 (ip), vehicle: saline) was 95 % of control, the T/C (dose: 120.0 mg/kg/injection, schedule: Q01DX005 (ip), vehicle: saline) was 91 % of control and the T/C (dose: 240.0 mg/kg/injection, schedule: Q01DX005 (ip), vehicle: saline) was 90 % of control.
With `O=[N+]([O-])c1ccc(C=Nc2ccc3c4c(cccc24)-c2ccccc2-3)cc1` the T/C [4] was 101 % of control, the T/C [5] was 90 % of control and the T/C (dose: 200.0 mg/kg/injection, schedule: Q01DX009 (ip), vehicle: saline with Tween-80) was 108 % of control.
For `CNC(=O)OCc1c(COC(=O)NC)c(-c2ccc(F)cc2)n(C)c1C`, the T/C (dose: 50.0 mg/kg/injection, schedule: Q01DX009 (ip), vehicle: distilled water + Tween-80) was 91 % of control.
In the case of `NC(CSCCCS(=O)(=O)O)C(=O)O` (configuration not stated), the T/C [1] was 101 % of control, the T/C [2] was 98 % of control and the T/C [3] was 100 % of control.
In the case of `CS1(C)=NC(=O)c2cc([N+](=O)[O-])ccc2N=1`, the T/C (dose: 60.0 mg/kg/injection, schedule: Q01DX005 (ip), vehicle: saline with Tween-80) was 94 % of control, the T/C (dose: 120.0 mg/kg/injection, schedule: Q01DX005 (ip), vehicle: saline with Tween-80) was 94 % of control and the T/C (dose: 240.0 mg/kg/injection, schedule: Q01DX005 (ip), vehicle: saline with Tween-80) was 92 % of control.
`Nc1ncnc2nc(Cl)[nH]c12` was tested, and the T/C [6] was 91 % of control, the T/C [7] was 93 % of control and the T/C [8] was 93 % of control.
With `O=C(COc1ccc([N+](=O)[O-])cc1)NN1C(=O)c2ccc([N+](=O)[O-])cc2C1=O` the T/C (dose: 60.0 mg/kg/injection, schedule: Q01DX005 (ip), vehicle: Klucel (hydroxypropylcellulose) (HPC)) was 92 % of control, the T/C (dose: 120.0 mg/kg/injection, schedule: Q01DX005 (ip), vehicle: Klucel (hydroxypropylcellulose) (HPC)) was 91 % of control and the T/C (dose: 240.0 mg/kg/injection, schedule: Q01DX005 (ip), vehicle: Klucel (hydroxypropylcellulose) (HPC)) was 87 % of control.
`Cc1ccc(NC(=S)NNC(=O)CN2C(=O)c3ccccc3C2=O)cc1` was tested, and the T/C (dose: 12.5 mg/kg/injection, schedule: Q01DX001 (ip), vehicle: Klucel (hydroxypropylcellulose) (HPC)) was 93 % of control, the T/C (dose: 25.0 mg/kg/injection, schedule: Q01DX001 (ip), vehicle: Klucel (hydroxypropylcellulose) (HPC)) was 93 % of control and the T/C (dose: 50.0 mg/kg/injection, schedule: Q01DX001 (ip), vehicle: Klucel (hydroxypropylcellulose) (HPC)) was 89 % of control and 90 % of control.
With `CN1CCN(Cc2ncc(C3CCCCC3)c(=O)[nH]2)CC1` the T/C [9] was 100 % of control, the T/C [4] was 102 % of control and the T/C [5] was 97 % of control.
`Nc1cc(-c2ccccc2)cn1-c1nnc(-c2ccc(Br)cc2)s1` was tested, and the T/C (dose: 100.0 mg/kg/injection, schedule: Q01DX001 (ip), vehicle: Klucel (hydroxypropylcellulose) (HPC)) was 101 % of control, the T/C (dose: 200.0 mg/kg/injection, schedule: Q01DX001 (ip), vehicle: Klucel (hydroxypropylcellulose) (HPC)) was 100 % of control and the T/C (dose: 400.0 mg/kg/injection, schedule: Q01DX001 (ip), vehicle: Klucel (hydroxypropylcellulose) (HPC)) was 99 % of control.
For `COc1ccc(-c2c3ccc(=O)c(OC)cc3cn2C)cc1OC`, the T/C [6] was 102 % of control, the T/C [7] was 94 % of control and the T/C [8] was 94 % of control.
For `CN1C(=O)N(C2CCCCC2)C(=O)C(C)(CN2CCCCC2)C1=O` (configuration not stated), the T/C (dose: 12.5 mg/kg/injection, schedule: Q01DX009 (ip), vehicle: saline with Tween-80) was 102 % of control, the T/C [9] was 100 % of control and the T/C [4] was 102 % of control. For the same compound, the T/C (dose: 50.0 mg/kg/injection, schedule: Q01DX009 (sc), vehicle: saline with Tween-80) was 100 % of control and the T/C (dose: 200.0 mg/kg/injection, schedule: Q01DX009 (sc), vehicle: saline with Tween-80) was 108 % of control.
